Test results reported in patent US20210251994A1, “INCREASING IMMUNE ACTIVITY THROUGH MODULATION OF POSTCELLULAR SIGNALING FACTORS” (FLAGSHIP PIONEERING INNOVATIONS V, INC., priority 2018, published 2021).
Entries after “also recorded” stand apart in the source; their conditions may differ.

Key:
[1] = tested on: Caki-1 renal cell carcinoma cells; assay: Viability of Caki-1 renal cell carcinoma cells after treatment; type: cell-based; conditions: various doses, 24 hours treatment
Protocol: Caki-1 renal carcinoma cells were treated with either control (DMSO) or various doses (e.g. 0.002, 0.005, 0.014, 0.041, 0.123, 0.370, 1.111, 3.333 and 10 μM) of a GPX4 inhibitor (RSL3 or ML162) in the presence or absence of 1 μM Ferrostatin for 24 hours prior to co-culture with THP1-Dual cells for an additional 24 hours. […] Caki-1 cells were acquired from ATCC and THP1-Dual cells acquired from InvivoGen (San Diego, Calif.). Both cell types were cultured in 96-well plates for the duration of the assay.

A20 lymphoma cells = assay: Viability of A20 B-cell leukemia / lymphoma cells after treatment; type: cell-based; conditions: various doses, 24 hours treatment
NFKB [2] = assay: NFKB reporter activity in THP1-Dual monocytes co-cultured with treated A20 cells; type: cell-based, human; conditions: A20 cells treated 24 hours, then co-culture with THP1-Dual cells 24 hours; versus DMSO
Protocol: (§1) A20 B-cell leukemia cells were treated with either control (DMSO) or various doses of RSL3, for 24 hours prior to co-culture with THP1-Dual cells for an additional 24 hours. RSL3 was purchased from Selleckchem (Houston, Tex.) and dissolved in DMSO. Subsequently, the THP1 supernatants were assessed for NFKB or IRF reporter activity.
(§2) A20 cells were acquired from ATCC and THP1-Dual cells acquired from InvivoGen (San Diego, Calif.). Both cell types were cultured in 96-well plates for the duration of the assay. 50,000 A20 cells were plated 24 hours prior to dosing with RSL3, with a final DMSO concentration of 0.5%. 24 hours post-treatment, THP1-Dual cells (25,000 cells/well) were added to the A20 cells. 24 hours later, 30 μl of supernatant was mixed with either 200 μl QuantiBlue (InvivoGen, San Diego, Calif.) or 50 μl QuantiLuc and absorbance or luminescence was recorded on a Molecular Devices plate reader.
A20 lymphoma cells were treated with various doses (e.g. 0.002, 0.005, 0.014, 0.041, 0.123, 0.370, 1.111, 3.333 and 10 μM) of a GPX4 inhibitor (RSL3, ML162 or ML210) in the presence or absence of 1 μM Ferrostatin-1 for 24 hours. ML162 was purchased from Cayman Chemical Company Inc and resuspended in DMSO. ML210 was purchased from Sigma-Aldrich and resuspended in DMSO. A20 lymphoma cells were also treated with DMSO as a negative control. After treatment with DMSO or a GPX4 inhibitor for 24 hours, the A20 lymphoma cells were co-cultured with THP1-Dual cells for an additional 24 hours. Subsequently, the THP1 supernatant was assessed for NFKB reporter activity. A20 cells were acquired from ATCC and THP1-Dual cells were acquired from InvivoGen (San Diego, Calif.). Both cell types were cultured in 96-well plates for the duration of the assay.

NFKB [3] = assay: NFKB reporter activity in THP1-Dual monocytes co-cultured with treated Caki-1 cells; type: cell-based, human; conditions: Caki-1 cells treated 24 hours, then co-culture with THP1-Dual cells 24 hours; versus DMSO
Protocol: as §1, with “Caki-1 renal cell carcinoma” for “A20 B-cell leukemia”, “Erastin,” for “RSL3,”, “Erastin” for “RSL3”
as §2, with “Caki-1” for “A20”, “7,500 Caki-1” for “50,000 A20”, “Erastin,” for “RSL3,”, “(InvivoGen)” for “(InvivoGen, San Diego, Calif.)”
as §1, with “Caki-1 renal cell carcinoma” for “A20 B-cell leukemia”, “Selleckchem” for “Selleckchem (Houston, Tex.)”
as §2, with “Caki-1” for “A20”, “7,500 Caki-1” for “50,000 A20”
Caki-1 renal carcinoma cells were treated with either control (DMSO) or various doses (e.g. 0.002, 0.005, 0.014, 0.041, 0.123, 0.370, 1.111, 3.333 and 10 μM) of a GPX4 inhibitor (RSL3 or ML162) in the presence or absence of 1 μM Ferrostatin for 24 hours prior to co-culture with THP1-Dual cells for an additional 24 hours. Subsequently, the THP1 supernatant was assessed for NFKB reporter activity. Caki-1 cells were acquired from ATCC and THP1-Dual cells acquired from InvivoGen (San Diego, Calif.). Both cell types were cultured in 96-well plates for the duration of the assay.

NFKB [4] = assay: NFKB reporter activity in THP1-Dual monocytes co-cultured with treated Jurkat cells; type: cell-based, human; conditions: Jurkat cells treated 24 hours, then co-culture with THP1-Dual cells 24 hours; versus DMSO
Protocol: as §1, with “Jurkat T cell” for “A20 B-cell”
as §2, with “Jurkat” for “A20”, “100,000 Jurkat” for “50,000 A20”

RAS-expressing cells = conditions: knockdown studies; U.S. Pat. No. 8,546,421; cited from earlier work
IRF = IRF reporter activity in THP1-Dual monocytes co-cultured with treated A20 cells; type: cell-based, human; conditions: A20 cells treated 24 hours, then co-culture with THP1-Dual cells 24 hours; versus DMSO
Protocol: A20 B-cell leukemia cells were treated with either control (DMSO) or various doses of RSL3, for 24 hours prior to co-culture with THP1-Dual cells for an additional 24 hours. RSL3 was purchased from Selleckchem (Houston, Tex.) and dissolved in DMSO. Subsequently, the THP1 supernatants were assessed for NFKB or IRF reporter activity. A20 cells were acquired from ATCC and THP1-Dual cells acquired from InvivoGen (San Diego, Calif.). Both cell types were cultured in 96-well plates for the duration of the assay. 50,000 A20 cells were plated 24 hours prior to dosing with RSL3, with a final DMSO concentration of 0.5%. 24 hours post-treatment, THP1-Dual cells (25,000 cells/well) were added to the A20 cells. 24 hours later, 30 μl of supernatant was mixed with either 200 μl QuantiBlue (InvivoGen, San Diego, Calif.) or 50 μl QuantiLuc and absorbance or luminescence was recorded on a Molecular Devices plate reader.

[5] = tested on: Jurkat T cell leukemia cells; assay: Viability of Jurkat T cell leukemia cells after treatment; type: cell-based; conditions: various doses, 24 hours treatment

## COC(=O)c1ccc([C@H]2c3[nH]c4ccccc4c3C[C@H](C(=O)OC)N2C(=O)CCl)cc1 [RSL3]
[1]
  viability of Caki-1 cells: negatively affected the viability; also recorded: decreased viability of the cells in a dose dependent manner
A20 lymphoma cells
  viability of A20 cells: negatively affected the viability; also recorded: decreased viability of the cells in a dose dependent manner
NFKB [2]
  NFKB signaling/activity in THP1 monocytes: elicited; also recorded: increased NFKB activity in THP1 cells in a dose dependent manner
NFKB [3]
  NFKB signaling/activity in THP1 monocytes: elicited NFKB signaling; also recorded: increased NFKB activity in THP1 cells in a dose dependent manner
NFKB [4]
  NFKB signaling in THP1 monocytes: elicited NFKB signaling
RAS-expressing cells
  death of RAS-expressing cells: selectively mediated the death of RAS-expressing cells
  lipid ROS accumulation: increasing lipid ROS accumulation
IRF
  IRF signaling in THP1 monocytes: elicited
[5]
  viability of Jurkat T cell leukemia cells: negatively affected the viability
